According to patent publication US20260297092A1, “PYRAZOLOPYRIMIDINE DERIVATIVES AS INHIBITORS OF NLRP3” (Takeda Pharmaceutical Company Limited, priority 2023, published 2026):

Assays:
[1] = tested on: NLRP3 inflammasome (IL-1β production in THP-1 cells); assay: IL-1β TR-FRET Assay (percentage of inhibition at 300 nM, 6 μM or 10 μM); type: cell-based, human; details: Homo sapiens, LPS priming, ATP activation; for inhibition at 6 µM: THP-1, 6 μM, read-out: IL-1β inhibitory rate at 6 μM (%); for inhibition at 0.3 µM: THP-1, 300 nM, read-out: IL-1β inhibitory rate at 300 nM (%)
Method in brief: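 Percent inhibition of IL-1β used DMSO wells as 0% and 3 μM MCC-950 wells as full inhibition, with supernatant read by HTRF. Beforehand, IFN-γ-differentiated (25 ng/mL, 24 h), LPS-primed (50 ng/mL, 24 h) THP-1 cells received compound 30 min before inflammasome activation by 20 mM ATP for 2 h.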

[2] = tested on: TNF-α (NF-κB pathway, THP-1 cells); assay: TNF-α Assay (IC50); type: cell-based, human; details: Homo sapiens, 600 ng/mL LPS, 3 hours
Method in brief: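 Supernatant TNF-α quantified by ELISA after 3 h stimulation with 600 ng/mL LPS at 37 °C, following 30 min compound preincubation. Cells: IFN-differentiated (25 ng/mL, 24 h) THP-1 macrophages, 40,000/well, serum-free. IC50 by sigmoidal fit of % inhibition, with TPCA-1 as 100% control.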

IC50 [2] [µM]	SMILES	inhibition at 6 µM [1] [%]	inhibition at 0.3 µM [1] [%]
> 30	COCc1nc2nn(-c3c(F)cc(C4CC4)cc3C(F)F)cc2c(=O)[nH]1 [Example 308, 2-[4-cyclopropyl-2-(difluoromethyl)-6-fluorophenyl]-6-(methoxymethyl)-2,5-dihydro-4H-pyrazolo[3,4-d]pyrimidin-4-one]	103	
> 30	CCOc1nc2nn(-c3c(C)cc(OC(F)F)cc3Br)cc2c(=O)[nH]1 [Example 142, 2-[2-bromo-4-(difluoromethoxy)-6-methylphenyl]-6-ethoxy-2,5-dihydro-4H-pyrazolo[3,4-d]pyrimidin-4-one]		93
> 30	CCOc1nc2nn(-c3c(F)cc(C4CC4)cc3F)cc2c(=O)[nH]1 [Example 103, 2-(4-cyclopropyl-2,6-difluorophenyl)-6-ethoxy-2,5-dihydro-4H-pyrazolo[3,4-d]pyrimidin-4-one]		97
> 30	CCOc1nc2nn(-c3ccc(C(F)(F)F)cc3C)cc2c(=O)[nH]1 [Example 69, 6-ethoxy-2-[2-methyl-4-(trifluoromethyl)phenyl]-2,5-dihydro-4H-pyrazolo[3,4-d]pyrimidin-4-one]		100
> 30	CCOc1nc2nn(-c3c(C)ccc(C)c3O)cc2c(=O)[nH]1 [Example 16, 6-ethoxy-2-(2-hydroxy-3,6-dimethylphenyl)-2,5-dihydro-4H-pyrazolo[3,4-d]pyrimidin-4-one]		101
> 30	CCOc1nc2nn(-c3c(F)cc(OC(F)F)cc3Br)cc2c(=O)[nH]1 [Example 119, 2-[2-bromo-4-(difluoromethoxy)-6-fluorophenyl]-6-ethoxy-2,5-dihydro-4H-pyrazolo[3,4-d]pyrimidin-4-one]		101
> 30	Cc1cc(C)c(-n2cc3c(=O)[nH]c(OCC(F)F)nc3n2)c(O)c1 [Example 32, 6-(2,2-difluoroethoxy)-2-(2-hydroxy-4,6-dimethylphenyl)-2,5-dihydro-4H-pyrazolo[3,4-d]pyrimidin-4-one]		105

The next lines start with the compound.

SMILES	IC50 [2] [µM]	inhibition at 6 µM [1] [%]	inhibition at 0.3 µM [1] [%]
Cc1cc(C)c(-n2cc3c(=O)[nH]c(CC4CCCCO4)nc3n2)c(O)c1 (centres unmarked) [Example 67, 2-(2-hydroxy-4,6-dimethylphenyl)-6-[(oxan-2-yl)methyl]-2,5-dihydro-4H-pyrazolo[3,4-d]pyrimidin-4-one]	> 30		98
COCc1nc2nn(-c3c(F)cc(C4CC4)cc3CC(F)F)cc2c(=O)[nH]1 [Example 322, 2-[4-cyclopropyl-2-(2,2-difluoroethyl)-6-fluorophenyl]-6-(methoxymethyl)-2,5-dihydro-4H-pyrazolo[3,4-d]pyrimidin-4-one]	> 30	104	
Cc1ccc(-n2cc3c(=O)[nH]c(-c4ccncn4)nc3n2)c(C)c1 [Example 84, 2-(2,4-dimethylphenyl)-6-(pyrimidin-4-yl)-2,5-dihydro-4H-pyrazolo[3,4-d]pyrimidin-4-one]	> 30		97
Cc1ccc(-n2cc3c(=O)[nH]c(OC4CC5(COC5)C4)nc3n2)c(C)c1 [Example 199, 2-(2,4-dimethylphenyl)-6-[(2-oxaspiro[3.3]heptan-6-yl)oxy]-2,5-dihydro-4H-pyrazolo[3,4-d]pyrimidin-4-one]	> 30		52
COCCOc1nc2nn(-c3c(C)cc(Br)cc3C)cc2c(=O)[nH]1 [Example 175, 2-(4-bromo-2,6-dimethylphenyl)-6-(2-methoxyethoxy)-2,5-dihydro-4H-pyrazolo[3,4-d]pyrimidin-4-one]	> 30		112
CCOc1nc2nn(-c3ccc(C(F)(F)F)cc3O)c(C)c2c(=O)[nH]1 [Example 59, 6-ethoxy-2-[2-hydroxy-4-(trifluoromethyl)phenyl]-3-methyl-2,5-dihydro-4H-pyrazolo[3,4-d]pyrimidin-4-one]	> 30		98
